According to US11452717B2, “Small molecule activators of nicotinamide phosphoribosyltransferase (NAMPT) and uses thereof” (Sanford Burnham Prebys Medical Discovery Institute, priority 2017, dated 2022):

The compounds below were run against NAMPT enzyme (Homo sapiens (Human), UniProt P43490) (assay: Enzyme Assay and NMN Detection (NAMPT reaction, fluorescence detection of NMN)). Conditions: Table B-2; NAMPT activation, NMN formation.
Format: biochemical
How it was run: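 Reaction in 50 mM HEPES pH 7.5, 5 mM MgCl2, 0.1% Prionex, 0.005% Tween 20, 1 mM TCEP at room temperature, with 16 nM NAMPT, 120 uM ATP, 5 uM nicotinamide, 6.25 uM PRPP, 0.04 U/ml pyrophosphatase for 2 h. Stopped with acetophenone/KOH then formic acid; NMN quantified by fluorescence (ex380/em460) against calibration curve.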

Sequence of NAMPT enzyme (P43490 whole entry, species assumed): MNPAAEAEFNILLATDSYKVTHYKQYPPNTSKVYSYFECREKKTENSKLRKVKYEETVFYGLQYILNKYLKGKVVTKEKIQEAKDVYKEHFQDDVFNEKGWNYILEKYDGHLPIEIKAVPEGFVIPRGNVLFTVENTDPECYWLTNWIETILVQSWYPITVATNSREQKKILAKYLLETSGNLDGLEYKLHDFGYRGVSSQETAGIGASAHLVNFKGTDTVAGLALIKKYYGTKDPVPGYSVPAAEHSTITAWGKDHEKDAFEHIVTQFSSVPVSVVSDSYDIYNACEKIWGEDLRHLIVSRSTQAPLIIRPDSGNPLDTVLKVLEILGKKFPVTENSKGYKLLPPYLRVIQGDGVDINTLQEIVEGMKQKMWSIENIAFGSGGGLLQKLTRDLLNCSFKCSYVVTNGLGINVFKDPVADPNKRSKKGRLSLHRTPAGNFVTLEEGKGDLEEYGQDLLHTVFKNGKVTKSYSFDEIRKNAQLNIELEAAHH

Compound | EC50 [µM]
O=C(NCc1ccncc1)Nc1ccc(S(=O)(=O)N2Cc3ccccc3C2)cc1 [1-[4-(1,3-Dihydro-isoindole-2-sulfonyl)-phenyl]-3-pyridin-4-ylmethyl-urea] | 0.1 to 2

Same assay, conditions: Table B-4; NAMPT activation, NMN formation

Compound | EC50 [µM]
Cc1ccc2c(-c3ccc(NC(=O)NCc4cn[nH]c4)cc3)nn(C)c2c1 [1-[4-(1,6-Dimethyl-1H-indazol-3-yl)-phenyl]-3-(1H-pyrazol-4-ylmethyl)-urea] | 0.1 to 2
CC(C)CN1CCC(S(=O)(=O)c2ccc(NC(=O)NCc3cn[nH]c3)cc2)CC1 [1-[4-(1-Isobutyl-piperidine-4-sulfonyl)-phenyl]-3-(1H-pyrazol-4-ylmethyl)-urea] | 2 to 5
CC(C)n1cc(S(=O)(=O)c2ccc(NC(=O)NCc3cn[nH]c3)cc2)cn1 [1-[4-(1-Isopropyl-1H-pyrazole-4-sulfonyl)-phenyl]-3-(1H-pyrazol-4-ylmethyl)-urea] | < 0.1
CC(C)N1CCC(S(=O)(=O)c2ccc(NC(=O)NCc3cn[nH]c3)cc2)CC1 [1-[4-(1-Isopropyl-piperidine-4-sulfonyl)-phenyl]-3-(1H-pyrazol-4-ylmethyl)-urea] | 2 to 5
Cn1nc(-c2ccc(NC(=O)NCc3cn[nH]c3)cc2)c2ccccc21 [1-[4-(1-Methyl-1H-indazol-3-yl)-phenyl]-3-(1H-pyrazol-4-ylmethyl)-urea] | 0.1 to 2
Cn1cc(S(=O)(=O)c2ccc(NC(=O)NCc3cn[nH]c3)cc2)cn1 [1-[4-(1-Methyl-1H-pyrazole-4-sulfonyl)-phenyl]-3-(1H-pyrazol-4-ylmethyl)-urea] | 0.1 to 2
Cn1nc(-c2ccc(NC(=O)NCc3cn[nH]c3)cc2)c2cccnc21 [1-[4-(1-Methyl-1H-pyrazolo[3,4-b]pyridin-3-yl)-phenyl]-3-(1H-pyrazol-4-ylmethyl)-urea] | 0.1 to 2
Cn1nc(-c2ccc(NC(=O)NCc3cn[nH]c3)cc2)c2ncccc21 [1-[4-(1-Methyl-1H-pyrazolo[4,3-b]pyridin-3-yl)-phenyl]-3-(1H-pyrazol-4-ylmethyl)-urea] | 0.1 to 2
Cn1nc(-c2ccc(NC(=O)NCc3cn[nH]c3)cc2)c2cnccc21 [1-[4-(1-Methyl-1H-pyrazolo[4,3-c]pyridin-3-yl)-phenyl]-3-(1H-pyrazol-4-ylmethyl)-urea] | 2 to 5

Same assay, conditions: Table B-5; NAMPT activation, NMN formation

Compound | EC50 [µM]
O=C(NCc1cnco1)Nc1ccc(S(=O)(=O)C2CCN(C3CCOCC3)CC2)cc1 [1-Oxazol-5-ylmethyl-3-{4-[1-(tetrahydro-pyran-4-yl)-piperidine-4-sulfonyl]-phenyl}-urea] | 0.1 to 2
Cc1ccc2c(-c3ccc(NC(=O)NCc4cnco4)cc3)nn(C)c2c1 [1-[4-(1,6-Dimethyl-1H-indazol-3-yl)-phenyl]-3-oxazol-5-ylmethyl-urea] | 0.1 to 2
CC(C)n1cc(S(=O)(=O)c2ccc(NC(=O)NCc3cnco3)cc2)cn1 [1-[4-(1-Isopropyl-1H-pyrazole-4-sulfonyl)-phenyl]-3-oxazol-5-ylmethyl-urea] | 0.1 to 2
Cn1nc(-c2ccc(NC(=O)NCc3cnco3)cc2)c2ccccc21 [1-[4-(1-Methyl-1H-indazol-3-yl)-phenyl]-3-oxazol-5-ylmethyl-urea] | 2 to 5
Cn1cc(S(=O)(=O)c2ccc(NC(=O)NCc3cnco3)cc2)cn1 [1-[4-(1-Methyl-1H-pyrazole-4-sulfonyl)-phenyl]-3-oxazol-5-ylmethyl-urea] | 2 to 5
Cn1nc(-c2ccc(NC(=O)NCc3cnco3)cc2)c2cccnc21 [1-[4-(1-Methyl-1H-pyrazolo[3,4-b]pyridin-3-yl)-phenyl]-3-oxazol-5-ylmethyl-urea] | 2 to 5
Cn1nc(-c2ccc(NC(=O)NCc3cnco3)cc2)c2ncccc21 [1-[4-(1-Methyl-1H-pyrazolo[4,3-b]pyridin-3-yl)-phenyl]-3-oxazol-5-ylmethyl-urea] | 2 to 5
Cn1nc(-c2ccc(NC(=O)NCc3cnco3)cc2)c2cnccc21 [1-[4-(1-Methyl-1H-pyrazolo[4,3-c]pyridin-3-yl)-phenyl]-3-oxazol-5-ylmethyl-urea] | 5 to 20

Same assay, conditions: Table B-6; NAMPT activation, NMN formation

Compound | EC50 [µM]
O=C(NCc1ccncc1)Nc1ccc(S(=O)(=O)c2cncs2)cc1 [1-Pyridin-4-ylmethyl)-3-(4-(thiazol-5-ylsulfonyl)phenyl)urea] | 0.1 to 2
O=C(NCc1ccncc1)Nc1ccc(S(=O)(=O)c2ccccc2OC(F)(F)F)cc1 [1-Pyridin-4-ylmethyl-3-[4-(2-trifluoromethoxy-benzenesulfonyl)-phenyl]-urea] | < 0.1
O=C(NCc1ccncc1)Nc1ccc(S(=O)(=O)c2ccccc2C(F)(F)F)cc1 [1-Pyridin-4-ylmethyl-3-[4-(2-trifluoromethyl-benzenesulfonyl)-phenyl]-urea] | 0.1 to 2
O=C(NCc1ccncc1)Nc1ccc(S(=O)(=O)c2cccc(OC(F)(F)F)c2)cc1 [1-Pyridin-4-ylmethyl-3-[4-(3-trifluoromethoxy-benzenesulfonyl)-phenyl]-urea] | < 0.1
O=C(NCc1ccncc1)Nc1ccc(S(=O)(=O)c2ccc(OC(F)(F)F)cc2)cc1 [1-Pyridin-4-ylmethyl-3-[4-(4-trifluoromethoxy-benzenesulfonyl)-phenyl]-urea] | 0.1 to 2
O=C(NCc1ccncc1)Nc1ccc(S(=O)(=O)c2ncccn2)cc1 [1-Pyridin-4-ylmethyl-3-[4-(pyrimidine-2-sulfonyl)-phenyl]-urea] | 2 to 5
Cc1ccccc1S(=O)(=O)c1ccc(NC(=O)NCc2ccncc2)cc1 [1-Pyridin-4-ylmethyl-3-[4-(toluene-2-sulfonyl)-phenyl]-urea] | 0.1 to 2
Cc1cccc(S(=O)(=O)c2ccc(NC(=O)NCc3ccncc3)cc2)c1 [1-Pyridin-4-ylmethyl-3-[4-(toluene-3-sulfonyl)-phenyl]-urea] | 0.1 to 2
Cc1ccc(S(=O)(=O)c2ccc(NC(=O)NCc3ccncc3)cc2)cc1 [1-Pyridin-4-ylmethyl-3-[4-(toluene-4-sulfonyl)-phenyl]-urea] | < 0.1
Cc1ccc2c(-c3ccc(NC(=O)NCc4ccncc4)cc3)nn(C)c2c1 [1-[4-(1,6-Dimethyl-1H-indazol-3-yl)-phenyl]-3-pyridin-4-ylmethyl-urea] | 0.1 to 2
CC(C)CN1CCC(S(=O)(=O)c2ccc(NC(=O)NCc3ccncc3)cc2)CC1 [1-[4-(1-Isobutyl-piperidine-4-sulfonyl)-phenyl]-3-pyridin-4-ylmethyl-urea] | 2 to 5
CC(C)n1cc(S(=O)(=O)c2ccc(NC(=O)NCc3ccncc3)cc2)cn1 [1-[4-(1-Isopropyl-1H-pyrazole-4-sulfonyl)-phenyl]-3-pyridin-4-ylmethyl-urea] | < 0.1
CC(C)N1CCC(S(=O)(=O)c2ccc(NC(=O)NCc3ccncc3)cc2)CC1 [1-[4-(1-Isopropyl-piperidine-4-sulfonyl)-phenyl]-3-pyridin-4-ylmethyl-urea] | 0.1 to 2
Cn1nc(-c2ccc(NC(=O)NCc3ccncc3)cc2)c2ccccc21 [1-[4-(1-Methyl-1H-indazol-3-yl)-phenyl]-3-pyridin-4-ylmethyl-urea] | 0.1 to 2
Cn1cc(S(=O)(=O)c2ccc(NC(=O)NCc3ccncc3)cc2)cn1 [1-[4-(1-Methyl-1H-pyrazole-4-sulfonyl)-phenyl]-3-pyridin-4-ylmethyl-urea] | 0.1 to 2
Cn1nc(-c2ccc(NC(=O)NCc3ccncc3)cc2)c2cccnc21 [1-[4-(1-Methyl-1H-pyrazolo[3,4-b]pyridin-3-yl)-phenyl]-3-pyridin-4-ylmethyl-urea] | 5 to 20
Cn1nc(-c2ccc(NC(=O)NCc3ccncc3)cc2)c2ncccc21 [1-[4-(1-Methyl-1H-pyrazolo[4,3-b]pyridin-3-yl)-phenyl]-3-pyridin-4-ylmethyl-urea] | 0.1 to 2
